“And” between values parts separate entries of the source, which are not always exact repeats. Equal values may be shown once.
How the values were obtained:
Details in all cases: incubation time: 72 h
HCC1143 [1] = test: normalised response (% of control), CellTiter-Glo; higher = more viable cells (100 = DMSO, 0 = benzethonium chloride kill control)
In short: (§1)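 Compound was dispensed into 384-well plates at 5 concentrations in 10-fold steps spanning a 10,000-fold range specific to that compound. Breast cancer cell lines were added as 20 µl suspension and left for 72 h before CellTox Green fluorescence (485/520 nm) and then CellTiter-Glo luminescence, read after 10 min at room temperature. Each reported value is the normalised signal at one concentration, with 0.1 % DMSO set at 100 and a positive kill control at 0 on each plate.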

HDQ-P1 [2] = test: as above
In short: as §1

CAL-85-1 [3] = test: as above
In short: as §1

DU-4475 [4] = test: as above
In short: as §1

MDA-MB-231 [5] = test: as above
In short: as §1

CAL-51 [6] = test: as above
In short: as §1

CAL-148 [7] = test: as above
In short: as §1

Hs578T [8] = test: as above
In short: as §1

MDA-MB-453 [9] = test: as above
In short: as §1

MDA-MB-468 [10] = test: as above
In short: as §1

SK-BR-3 [11] = test: as above
In short: as §1

BT-549 [12] = test: as above
In short: as §1

HCC1599 [13] = test: as above
In short: as §1

CAL-120 [14] = test: as above
In short: as §1

MDA-MB-436 [15] = test: as above
In short: as §1

BT-474 [16] = test: as above
In short: as §1

HCC1937 [17] = test: as above
In short: as §1

MFM-223 [18] = test: as above
In short: as §1

MCF-10A = test: as above
In short: as §1

HCC1143 [19] = test: normalised viability (% of control), CellTiter-Blue; higher = more viable cells (100 = DMSO, 0 = benzethonium chloride kill control)
Description: (§2)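 DSRT, CellTiter-Blue viability, 72 h incubation. Signal is normalised to DMSO and benzethonium chloride controls. Value is the normalised response at dose 1.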

CAL-85-1 [20] = test: as above
Description: as §2

DU-4475 [21] = test: as above
Description: as §2

MDA-MB-231 [22] = test: as above
Description: as §2

CAL-51 [23] = test: as above
Description: as §2

CAL-148 [24] = test: as above
Description: as §2

Hs578T [25] = test: as above
Description: as §2

MDA-MB-453 [26] = test: as above
Description: as §2

MDA-MB-468 [27] = test: as above
Description: as §2

SK-BR-3 [28] = test: as above
Description: as §2

BT-549 [29] = test: as above
Description: as §2

HCC1599 [30] = test: as above
Description: as §2

CAL-120 [31] = test: as above
Description: as §2

MDA-MB-436 [32] = test: as above
Description: as §2

BT-474 [33] = test: as above
Description: as §2

HCC1937 [34] = test: as above
Description: as §2

MFM-223 [35] = test: as above
Description: as §2

HDQ-P1 [36] = test: as above
Description: as §2

SMILES	normalised response (HCC1143 [1])	normalised response (HDQ-P1 [2])	normalised response (CAL-85-1 [3])	normalised response (DU-4475 [4])	normalised response (MDA-MB-231 [5])	normalised response (CAL-51 [6])	normalised response (CAL-148 [7])	normalised response (Hs578T [8])	normalised response (MDA-MB-453 [9])	normalised response (MDA-MB-468 [10])	normalised response (SK-BR-3 [11])	normalised response (BT-549 [12])	normalised response (HCC1599 [13])	normalised response (CAL-120 [14])	normalised response (MDA-MB-436 [15])	normalised response (BT-474 [16])	normalised response (HCC1937 [17])	normalised response (MFM-223 [18])	normalised response (MCF-10A)	normalised viability (HCC1143 [19])	normalised viability (CAL-85-1 [20])	normalised viability (DU-4475 [21])	normalised viability (MDA-MB-231 [22])	normalised viability (CAL-51 [23])	normalised viability (CAL-148 [24])	normalised viability (Hs578T [25])	normalised viability (MDA-MB-453 [26])	normalised viability (MDA-MB-468 [27])	normalised viability (SK-BR-3 [28])	normalised viability (BT-549 [29])	normalised viability (HCC1599 [30])	normalised viability (CAL-120 [31])	normalised viability (MDA-MB-436 [32])	normalised viability (BT-474 [33])	normalised viability (HCC1937 [34])	normalised viability (MFM-223 [35])	normalised viability (HDQ-P1 [36])
CC(=O)O[C@@]12CO[C@@H]1C[C@H](O)[C@@]1(C)C(=O)[C@H](O)C3=C(C)[C@@H](OC(=O)[C@H](O)[C@@H](NC(=O)OC(C)(C)C)c4ccccc4)C[C@@](O)([C@@H](OC(=O)c4ccccc4)[C@H]21)C3(C)C [Docetaxel] (0.1 nM)	96.3%	96.2%	102%	96.7%	102%	94.5%	90.8%	93.2%	99.7%	106%	99.3%	104%	101%	104%	105%	98.8%	94.5%	96.9%	98%	107% and 111%	101% and 106%	109% and 110%	110% and 94.6%	104% and 92.1%	107% and 110%	99.7% and 96.5%	118% and 98.6%	96.8% and 100%	103% and 105%	92.9% and 96.3%	119% and 123%	96.5% and 94.7%	91.9% and 106%	104% and 90.1%	81.5% and 83.6%	100% and 102%	–
Cn1cnc2c(F)c(Nc3ccc(Br)cc3Cl)c(C(=O)NOCCO)cc21 [Selumetinib] (1 nM)	89.6%	91.4%	104%	95.5%	97%	99.8%	87.8%	99%	111%	93.8%	96.5%	103%	93.2%	93.3%	80.8%	84.7%	89.5%	94.9%	81.2%	90.6%	90.1%	102%	89%	113%	107%	107%	109%	101%	94%	102%	98.5%	81%	97.6%	104%	100%	83.6%	107%
O=NN(CCCl)C(=O)NCCCl [Carmustine] (1 nM)	97.8%	99.3%	94.4%	103%	98.2%	87.1%	89.3%	100%	109%	98.1%	90.5%	97.1%	103%	100%	80%	97%	97.6%	94.2%	87.3%	90.5%	87.8%	120%	133%	107%	115%	134%	108%	106%	99.8%	103%	97%	94.2%	75.7%	87.5%	88.8%	93.5%	111%
C[C@]12CC[C@@H]3c4ccc(OC(=O)N(CCCl)CCCl)cc4CC[C@H]3[C@@H]1CC[C@@H]2O [Estramustine] (0.099 nM)	–	–	–	–	–	–	–	–	–	–	–	–	–	–	–	–	–	–	–	104%	108%	89.9%	93.3%	84%	109%	94.3%	98.9%	107%	114%	92.4%	84.8%	111%	106%	93.4%	91.8%	106%	106%

From the supplement of paper PMC4862054
